From US20030109523A1, “Bicyclic antagonists selective for the alphavbeta3 integrin” (Wyeth, priority 1999, published 2003)

Key:
[1] = target: T1, Vitronectin Receptor (αVβ3) (Homo sapiens, UniProt P05106+P06756); assay: Vitronectin Receptor (αVβ3) Binding Test Procedure; settings: for IC50: read-out: (αVβ3) IC50 RECEPTOR BINDING
T1 construct: expressed in transfected cells; host or cells: 512P5 cells (plasma membrane preparation)

[2] = target: T2, αVβ3 integrin (Homo sapiens, UniProt P05106+P06756); assay: Osteopontin-αVβ3 Cell Attachment Test Procedure; assay type: cell-based; settings: for IC50: attachment of cells to osteopontin, read-out: (αVβ3) IC50 CELL ATTACHMENT; for remaining activity at 20 µM / remaining activity at 100 µM: % of maximal attachment, read-out: (αVβ3) CELL ATTACHMENT, % @ concentration
T2 construct: αVβ3-expressing cell lines are maintained by standard tissue culture techniques; endogenous in cells; host or cells: αVβ3-expressing cell lines
Protocol: Osteopontin-αVβ3 Cell Attachment Test Procedure
Measuring the effect of compounds on the RGD-dependent attachment of cells to osteopontin mediated by the αVβ3 integrin.
Following incubation the wells were aspirated and washed once with D-PBS; plates can either be used immediately or stored for up to 1 week at 4° C. Prior to assay, the wells were blocked with 1% bovine serum albumin (BSA) in cell suspension media for 1 hour at 37° C. Following the blocking period, wells were aspirated and washed once with D-PBS.
αVβ3-expressing cell lines are maintained by standard tissue culture techniques. […] The cells were pelleted by low-speed centrifugation and washed three times with 0.5 mg/mL trypsin inhibitor in D-PBS (Sigma). The final cell pellet was resuspended in cell suspension media at a concentration of 10^6 cells/mL.
Incubation: 100 μL of diluted test compound was added to osteopontin-coated wells (in triplicate) followed by 100 μL of cell suspension; background cell attachment was determined in uncoated wells. The plate was incubated at 25° C. in a humidified air atmosphere for 1.5 hours. Following the incubation period, the wells were gently aspirated and washed once with D-PBS.
Cell Number Detection: The number of cells attached was determined by an MTT dye conversion assay (Promega) according to the manufacturer's instructions. Briefly, MTT dye was diluted in cell suspension media (15:85) and 100 μL was added to each well. […] The assay plates were covered and incubated at 37° C. in a humidified air atmosphere overnight.
The individual well optical density was expressed as a percentage of the maximal attachment (% Max) wells minus background attachment, and reported as the mean ±standard deviation.

[3] = target: T3, αIIbβ3 integrin (Homo sapiens, UniProt P05106+P08514); assay: ADP-Induced Platelet Aggregation; assay type: cell-based; settings: Table VII; for IC50: ADP 20 uM, human platelets, read-out: Platelet Aggregation αIIbβ3 IC50; for remaining activity at 200 µM: percent of maximal aggregation
T3 construct: Human Platelets: Platelet-enriched plasma was obtained commercially from a donor pool; from tissue; host or cells: human platelet-rich plasma from a commercial donor pool
Protocol: Measurement of the Effect of Compounds on ADP-Induced Platelet Aggregation
Measuring the effect of compounds on ADP-induced platelet aggregation mediated by a fibrinogen-αIIbβ3 integrin interaction.
Human Platelets: Platelet-enriched plasma was obtained commercially from a donor pool. The plasma was tested prior to shipment and found to be negative for HIV, HCV and Hepatitis B. Platelet-rich plasma (PRP) was obtained by diluting plasma to an approximate final concentration of 3×10(6) platelets per mL in platelet poor plasma (PPP). PPP was the supernatant of a lowspeed centrifugation of plasma.
Adenosine diphosphate (ADP): ADP was obtained commercially and diluted to 1 mM (stock solution) in distilled, deionized water (ddH2O).
Incubation: PRP and PPP were prewarmed in a water bath at 37° C. […] PRP plus sample compound in a final volume of 500 uL was added to a pre-warmed cuvette in a ChronoLog aggregometer. A control containing PRP and 5 uL of vehicle was treated similarly to the test cuvette; final vehicle concentration was 1%. The two cuvettes were incubated with stirring (1000 rpm) at 37° C. for 5 minutes. Five hundred microliters of PPP was used as a reference (100% aggregation).
Aggregation: To begin the test, ADP was added yielding a final concentration of 20 uM to both samples (plus and minus sample compound). Light transmittance was monitored continuously and compared to the reference cuvette. After five minutes, the test was terminated and the slope and maximal amplitude of the resulting aggregation plot was calculated by the aggregometer.
The percent of maximal aggregation is the ratio of the maximal aggregations of the sample cuvette to the control multiplied by 100 (% Max) and reported as the mean+−standard deviation.

[4] = system: osteoclasts; assay: Osteoclast Bone Pitting; assay type: cell-based, rat; settings: Rattus norvegicus, Osteoclast
Protocol: Osteoclast Bone Pitting The test procedure was conducted as described by R. J. Murrills and D. W. […] At this pH the adherent osteoclasts excavate an adequate number of resorption pits for assay purposes. Slices were fixed in 2.5% glutaraldehyde and osteoclasts counted following tartrate-resistant acid phosphatase staining. […] All cells were stripped from the slice by sonication on 0.25M NH4OH and the resorption pits formed by the osteoclasts during the experiment stained with toluidine blue. Resorption pits were quantified by manually counting. The experiments were conducted according to a block design with osteoclasts from each animal exposed to each treatment. Three replicate slices were used per treatment per animal, such that a total of 96 slices were examined for an experiment involving four animals and eight treatments (including control). Several parameters were recorded on a “per slice” basis: number of pits, number of osteoclasts, number of pits per osteoclast, number of fibroblast-like bone cells. SAS or JMP statistical software were used for statistical analysis. […] IC50s were calculated using dose-response curves.

[5] = % Max = percentage of the specific binding, read-out: (αVβ3) RECEPTOR BINDING, % @ concentration

T2 sequence (P06756 31-889 limits assumed): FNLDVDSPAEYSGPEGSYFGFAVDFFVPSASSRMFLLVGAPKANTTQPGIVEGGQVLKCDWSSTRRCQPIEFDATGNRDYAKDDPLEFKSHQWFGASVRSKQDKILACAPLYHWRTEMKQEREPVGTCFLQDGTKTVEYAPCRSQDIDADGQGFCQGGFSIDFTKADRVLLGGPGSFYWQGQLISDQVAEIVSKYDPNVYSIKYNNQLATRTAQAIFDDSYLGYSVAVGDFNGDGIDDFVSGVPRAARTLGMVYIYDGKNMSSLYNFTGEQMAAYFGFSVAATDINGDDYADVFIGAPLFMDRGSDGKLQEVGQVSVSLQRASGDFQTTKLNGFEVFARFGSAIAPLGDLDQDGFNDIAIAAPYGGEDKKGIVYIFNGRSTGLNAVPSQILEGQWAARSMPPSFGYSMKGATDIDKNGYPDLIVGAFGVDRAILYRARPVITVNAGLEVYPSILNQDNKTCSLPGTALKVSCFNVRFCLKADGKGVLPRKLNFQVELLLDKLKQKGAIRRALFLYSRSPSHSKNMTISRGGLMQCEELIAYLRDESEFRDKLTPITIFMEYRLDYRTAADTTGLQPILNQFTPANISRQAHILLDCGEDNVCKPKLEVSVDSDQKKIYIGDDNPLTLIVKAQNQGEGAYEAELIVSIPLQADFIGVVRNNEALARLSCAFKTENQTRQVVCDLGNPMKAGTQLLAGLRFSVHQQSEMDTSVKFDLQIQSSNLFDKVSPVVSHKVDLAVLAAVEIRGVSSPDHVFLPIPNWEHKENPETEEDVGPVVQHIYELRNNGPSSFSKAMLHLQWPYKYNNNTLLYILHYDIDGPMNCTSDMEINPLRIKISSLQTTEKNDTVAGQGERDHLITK
T2 sequence (P06756 891-1048 partner limits assumed): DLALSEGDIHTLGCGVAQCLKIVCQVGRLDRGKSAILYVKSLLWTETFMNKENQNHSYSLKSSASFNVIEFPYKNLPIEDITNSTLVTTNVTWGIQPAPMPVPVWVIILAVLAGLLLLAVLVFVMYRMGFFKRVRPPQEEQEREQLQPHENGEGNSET
T2 sequence (P05106 27-788): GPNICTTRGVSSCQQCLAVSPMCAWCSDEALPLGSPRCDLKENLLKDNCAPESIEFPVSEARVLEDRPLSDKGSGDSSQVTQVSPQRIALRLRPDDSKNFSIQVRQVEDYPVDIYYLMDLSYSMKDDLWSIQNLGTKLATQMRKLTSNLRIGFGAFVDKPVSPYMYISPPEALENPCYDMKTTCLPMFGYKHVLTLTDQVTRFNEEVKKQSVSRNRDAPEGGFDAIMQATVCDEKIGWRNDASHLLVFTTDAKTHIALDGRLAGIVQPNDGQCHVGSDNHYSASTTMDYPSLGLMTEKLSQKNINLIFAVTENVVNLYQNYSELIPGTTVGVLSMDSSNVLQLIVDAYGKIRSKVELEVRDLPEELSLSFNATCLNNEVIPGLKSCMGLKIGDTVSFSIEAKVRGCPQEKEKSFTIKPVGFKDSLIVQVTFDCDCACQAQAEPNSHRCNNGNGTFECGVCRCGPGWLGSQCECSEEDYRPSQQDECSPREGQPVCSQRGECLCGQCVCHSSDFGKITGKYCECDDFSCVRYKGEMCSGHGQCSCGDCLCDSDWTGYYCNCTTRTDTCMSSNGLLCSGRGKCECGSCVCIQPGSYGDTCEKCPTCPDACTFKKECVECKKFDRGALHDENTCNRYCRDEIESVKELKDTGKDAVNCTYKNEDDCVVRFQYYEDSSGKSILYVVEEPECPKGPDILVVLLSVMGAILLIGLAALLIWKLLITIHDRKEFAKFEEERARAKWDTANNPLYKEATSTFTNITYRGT
T1 sequence (P06756 31-889 limits assumed): as the sequence (P06756 31-889 limits assumed) above
T1 sequence (P06756 891-1048 partner limits assumed): as the sequence (P06756 891-1048 partner limits assumed) above
T1 sequence (P05106 27-788): as the sequence (P05106 27-788) above
T3 sequence (P08514 32-887 limits assumed): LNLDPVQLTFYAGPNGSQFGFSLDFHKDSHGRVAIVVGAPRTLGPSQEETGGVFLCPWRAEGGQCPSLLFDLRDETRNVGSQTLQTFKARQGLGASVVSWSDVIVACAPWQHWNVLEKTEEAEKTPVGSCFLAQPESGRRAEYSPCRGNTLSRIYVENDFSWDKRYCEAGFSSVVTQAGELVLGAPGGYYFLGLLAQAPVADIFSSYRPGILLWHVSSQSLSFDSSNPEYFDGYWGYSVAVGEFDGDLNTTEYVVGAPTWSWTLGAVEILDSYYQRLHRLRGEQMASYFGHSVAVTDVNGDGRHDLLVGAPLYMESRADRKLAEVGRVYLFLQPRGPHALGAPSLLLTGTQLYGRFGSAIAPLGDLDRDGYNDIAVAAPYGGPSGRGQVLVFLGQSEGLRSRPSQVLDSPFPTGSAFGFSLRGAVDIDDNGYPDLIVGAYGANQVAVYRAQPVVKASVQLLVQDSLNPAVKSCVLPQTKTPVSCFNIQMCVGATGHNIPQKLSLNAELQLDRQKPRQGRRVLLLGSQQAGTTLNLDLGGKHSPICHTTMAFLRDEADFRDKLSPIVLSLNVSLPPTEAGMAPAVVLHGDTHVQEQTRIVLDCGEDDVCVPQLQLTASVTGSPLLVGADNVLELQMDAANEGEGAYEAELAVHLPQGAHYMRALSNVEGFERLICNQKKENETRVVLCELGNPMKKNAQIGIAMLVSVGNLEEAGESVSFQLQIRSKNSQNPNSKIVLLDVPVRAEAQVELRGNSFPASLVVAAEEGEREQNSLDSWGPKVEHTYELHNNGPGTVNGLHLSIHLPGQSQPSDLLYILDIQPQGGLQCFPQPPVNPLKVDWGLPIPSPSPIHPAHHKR
T3 sequence (P08514 891-1039 partner limits assumed): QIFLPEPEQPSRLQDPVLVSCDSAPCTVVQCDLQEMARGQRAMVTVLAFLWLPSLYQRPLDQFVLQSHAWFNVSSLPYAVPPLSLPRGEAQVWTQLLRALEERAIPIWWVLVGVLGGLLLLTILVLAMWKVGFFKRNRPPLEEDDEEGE
T3 sequence (P05106 27-788): as the sequence (P05106 27-788) above

Row | SMILES | IC50 [1] [µM] | IC50 [2] [µM] | melting point | remaining activity at 200 µM [3] [%] | remaining activity at 100 µM [2] [%] | further results
1 | N=C(N)NCCCOc1ccc2c(c1)CCCC(CC(=O)O)C2.O=C(O)C(F)(F)F (stereo not shown) [Example 62, [2-(3-Guanidino-propoxy)-6,7,8,9-tetrahydro-5H-benzocyclohepten-6-yl]-acetic Acid Trifluoroacetate] | 1.4 | 14 | 109 to 114 °C | – | – | IC50 [3]: 169 µM
2 | N=C(N)NCCCCOc1ccc2c(c1)NC(=O)C(CC(=O)O)C2.O=C(O)C(F)(F)F (stereo not shown) [Example 84, [7-(4-Guanidino-butoxy)-2-oxo-1,2,3,4-tetrahydro-quinolin-3-yl]-acetic Acid Trifluoroacetate] | 11.4 | 24.5 | 189 to 191 °C | 62 | – | inhibition at 223 µM ([4]; @ 223 μM): 57%
3 | Cl.N=C(N)NCCCOc1ccc2c(c1)NC(=O)C(CC(=O)O)C2 (stereo not shown) [Example 86, [7-(3-Guanidino-propoxy)-2-oxo-1,2,3,4-tetrahydro-quinolin-3-yl]-acetic Acid Hydrochloride] | 7.3 | 21.1 | 227 to 229 °C | 80.9 | – | inhibition at 280 µM ([4]; @ 280 μM): 70%
4 | Cl.N=C(N)NCCC#Cc1ccc2c(c1)NC(=O)C(CC(=O)O)C2 (stereo not shown) [Example 100, [7-(4-Guanidino-but-1-ynyl)-2-oxo-1,2,3,4-tetrahydro-quinolin-3-yl]-acetic Acid Hydrochloride] | – | 79 | 130 to 180 °C | – | – | remaining activity at 100 µM ([1]; @ 100 μM, % Max = percentage of the specific binding, read-out: (αVβ3) RECEPTOR BINDING, % @ concentration): 30.9%; inhibition at 264 µM ([4]; @ 264 μM): 38%; IC50 [3]: 216 µM
5 | N=C(N)NCCC=Cc1ccc2c(c1)NC(=O)C(CC(=O)O)C2.O=C(O)C(F)(F)F (stereo not shown) [Example 112, [7-(4-Guanidino-but-1-enyl)-2-oxo-1,2,3,4-tetrahydro-quinolin-3-yl]-acetic Acid Trifluoroacetate] | 7 | 19.7 | 173 to 176 °C | 80.4 | – | –
6 | N=C(N)NCCCC=Cc1ccc2c(c1)NC(=O)C(CC(=O)O)C2.O=C(O)C(F)(F)F (stereo not shown) [Example 113, [7-(5-Guanidino-pent-1-enyl)-2-oxo-1,2,3,4-tetrahydro-quinolin-3-yl]-acetic Acid Trifluoroacetate] | 4 | 17.8 | 162 to 165 °C | 77.1 | – | –
7 | N=C(N)NCCCCc1ccc2c(c1)NC(=O)C(CC(=O)O)C2.O=C(O)C(F)(F)F (stereo not shown) [Example 121, [7-(4-Guanidino-butyl)-2-oxo-1,2,3,4-tetrahydro-quinolin-3-yl]-acetic Acid Trifluoroacetate] | 2.6 | 15.1 | 157 to 160 °C | 62 | – | inhibition at 228 µM ([4]; @ 228 μM): 30%
8 | N=C(N)NCCCCCc1ccc2c(c1)NC(=O)C(CC(=O)O)C2.O=C(O)C(F)(F)F (stereo not shown) [Example 122, [7-(5-Guanidino-pentyl)-2-oxo-1,2,3,4-tetrahydro-quinolin-3-yl]-acetic Acid Trifluoroacetate] | 3.6 | 8.3 | 148 to 151 °C | – | – | IC50 ([4]; read-out: BONE PITTING INHIBITION IC50): 159 µM; IC50 [3]: 57 µM
9 | CCn1c(=O)c(CC(=O)O)cc2ccc(OCCCNC(=N)N)cc21.O=C(O)C(F)(F)F [Example 149, [1-Ethyl-7-(3-guanidino-propoxy)-2-oxo-1,2-dihydro-quinolin-3-yl]-acetic Acid Trifluoroacetate] | – | – | 131 °C | 90.2 | 71.5 | remaining activity at 20 µM [2]: 96.3%
10 | CCN1C(=O)C(CC(=O)O)Cc2ccc(OCCCNC(=N)N)cc21.O=C(O)C(F)(F)F (stereo not shown) [Example 158, [1-Ethyl-7-(3-guanidino-propoxy)-2-oxo-1,2,3,4-tetrahydro-quinolin-3-yl]-acetic Acid Trifluoroacetate] | – | – | 165 to 166 °C | – | – | inhibition at 216 µM ([4]; @ 216 μM): 13%
11 | N=C(N)NCCCOc1ccc2c(c1)N(Cc1ccccc1)C(=O)C(CC(=O)O)C2 (stereo not shown) [Example 172, [1-Benzyl-7-(3-guanidino-propoxy)-2-oxo-1,2,3,4-tetrahydro-quinolin-3-yl]-acetic Acid] | 2.7 | 27.3 | 172 to 173 °C | 71.5 | – | inhibition at 190 µM ([4]; @ 190 μM): 15%
12 | Cl.N=C(N)NCCCCOc1ccc2cc(CC(=O)O)c(=O)[nH]c2c1 [Example 184, [7-(4-Guanidino-butoxy)-2-oxo-1,2-dihydro-quinolin-3-yl]-acetic Acid Hydrochloride] | – | – | 216.5 to 219 °C | 85.5 | 85 | remaining activity at 30 µM [1, 5]: 67.5%; remaining activity at 20 µM [2]: 108%; inhibition at 271 µM ([4]; @ 271 μM): 37%
13 | N=C(N)NCCCOc1ccc2c(c1)CC(CCC(=O)O)C(=O)N2 (stereo not shown) [Example 223, 3-[6-(3-Guanidino-propoxy)-2-oxo-1,2,3,4-tetrahydro-quinolin-3-yl]-propionic Acid] | – | – | 168 to 172 °C | – | 108 | remaining activity at 30 µM [1, 5]: 100%; remaining activity at 20 µM [2]: 104%; inhibition at 226 µM ([4]; @ 226 μM): -72%; IC50 [3]: 54 µM
14 | N=C(N)NCCOc1ccc2c(c1)NC(=O)C(CCC(=O)O)C2 (stereo not shown) [Example 230, 3-[7-(2-Guanidino-ethoxy)-2-oxo-1,2,3,4-tetrahydro-quinolin-3-yl]-propionic Acid] | – | – | 193 to 196 °C | 95.2 | 100 | inhibition at 230 µM ([4]; @ 230 μM): 15%
15 | N=C(N)NCCCOc1ccc2c(c1)NC(=O)C(CCC(=O)O)C2 (stereo not shown) [Example 231, 3-[7-(3-Guanidino-propoxy)-2-oxo-1,2,3,4-tetrahydro-quinolin-3-yl]-propionic Acid] | – | – | 157 to 159 °C | 78.3 | 93 | remaining activity at 30 µM [1, 5]: 55.9%
16 | N=C(N)NCCCOc1ccc2[nH]c(=O)c(CC(=O)O)cc2c1 [Example 237, [6-(3-Guanidino-propoxy)-2-oxo-1,2-dihydro-quinolin-3-yl]-acetic Acid] | – | – | 207 to 212 °C (dec.) | 96.5 | 114 | remaining activity at 30 µM [1, 5]: 100%; remaining activity at 20 µM [2]: 86.2%
